US9539245B2, “Combination of immunotherapies with activators of Tie-2” (Aerpio Therapeutics, Inc., priority 2014, dated 2017)
Entries after “also recorded” stand apart in the source; their conditions may differ.

How the values were obtained:
[1] = test system: stroke after MCAO in mice; assay: Middle cerebral artery occlusion (MCAO) stroke model in mice; type: in vivo, mouse
Procedure: Mice with endothelial-specific overexpression of hAng-2 (DT mice) underwent a permanent middle cerebral artery occlusion (MCAO). After a permanent MCAO was performed, animals were allowed to survive for 24 hours or 72 hours. Mice were anesthetized intraperitoneally (i.p.) with a combination of midazolam/medetomidine/fentanyl (5/0.5/0.05 mg/kg body mass). Anesthesia was terminated by i.p. injection of atipamezol/naloxone/flumazenil 2.5/1.2/0.5 mg/kg body weight). Brains were isolated and frozen down in Tissue TEK® O.C.T. and stored at −80° C. until use. WT mice also underwent the procedure as controls.
Larger infarcts were detected in DT mice that were subjected to MCAO as compared to WT mice that were subjected to MCAO after 24 hours and 72 hours (FIG. 9). Additionally, the IgG permeability in the stroke area was increased in DT mice (FIG. 10). Mice were treated with a Tie-2 activator shown below: […]

Tie-2 [2] = assay: Western blot and staining of the stroke hemisphere of treated mice; set-up: species or system mouse; conditions: in vivo
Procedure: (§1) For the Western blot experiments, samples were solubilized in urea/SDS buffer (2.3 M urea, 1.5% SDS, 50 mM Tris, 25 mM TCEP, and 0.01% BPB) for 1.5 h at 30° C. with shaking. Solubilized samples were loaded into Tris-HCl Bis-acrylamide gels (8-15%), electrophoresed, and subsequently transferred to nitrocellulose membranes at 4° C. overnight. Membranes were blocked for 1 hour at room temperature on a 1× Roti®-block (Roth™), incubated with primary antibodies overnight at 4° C., washed with PBS-T (0.5% Tween®-20), incubated with horseradish peroxidase-conjugated or fluorescent secondary antibodies (LI-COR™) for 1 h at room temperature. Membranes were imaged in Odyssey® (LI-COR™) imaging device and quantitation was performed on exported raw tiff files using Image Studio™ 2.1 software (LI-COR™).
Activation of Tie-2 upon treatment indicated by higher pTie-2 and pAkt levels in stroke hemispheres confirms in vivo activity (FIG. 15). […] FIG. 16 illustrates representative images (n=2 each group) of Tie-2 (red) and pTie-2 (green) staining of the stroke hemisphere.

Tie-2 [3] = assay: Western blot analysis of MBMECs pre-treated with hAng-2; type: cell-based, mouse; conditions: MBMECs pretreated with hAng-2 (16 h, 500 ng/ml), then Tie-2 activator 50 μM, 10 min
Procedure: as §1
Activation of Tie-2/Akt by the Tie-2 activator alone indicates a direct and specific effect of this drug. Phosphorylation of VE-Cadherin responsible for increased junctional permeability was reduced upon treatment with the Tie-2 activator (FIGS. 13 and 14). This observation explains in part the decreased permeability and stroke size in vivo.

MBMEC monolayers = assay: Transwell permeability assay of MBMEC monolayers with fluorescent tracers; type: cell-based, mouse (C57BL/6J); conditions: MBMECs from C57BL/6J mice, FIG. 2
Procedure: MBMECs were isolated from CD1 and C57BL/6J mice pooling 4-6 animals in each preparation and cultured on transwell inserts. Permeability of the MBMEC monolayers to 0.45 kD Lucifer-Yellow (LY; Sigma™), Texas Red® 3 kD dextran (Invitrogen™), TMR 20 kD dextran (Sigma™) and 70 kD FITC dextran (Sigma™) was determined as follows. Medium from the bottom chamber at each time point was read in a fluorescence plate reader (Tecan™) at the corresponding tracer excitation/emission and normalized to the apical chamber fluorescence with the ratio for the control condition set to 100%.
To rule out the possibility that Ang-2-mediated permeability was specific to the CD1 strain of mice used in the experiment, transwell assays applying fluorescent dextrans (3 kD, 20 kD, and 70 kD) and Lucifer-Yellow (LY 0.45 kD), using C57BL/6J mice were conducted.

[4] = test system: primary mouse brain endothelial cells (MBMECs); assay: Transendothelial electrical resistance (TEER) measurements of MBMEC monolayers; type: cell-based; conditions: recombinant human Ang-2 treatment; CD1 mice; FIG. 1 PANEL B
Procedure: To assess the role of Angiopoietin 1 (Ang-1), Angiopoietin 2 (Ang-2), and a Tie-2 activator in modulating permeability at the blood-brain barrier transendothelial electrical resistance (TEER) measurements were performed to obtain continuous barrier tightness index of primary mouse brain endothelial cells (MBMECs).
TEER measurements were performed as follows: isolated mouse brain microvascular endothelial cells (MBMECs) (100,000 cells/cm^2, 4-6 mice/prep) were seeded onto 1 μm pore 24-well PET transwell inserts (Greiner Bio-One) pre-coated with fibronectin (5 μg/cm^2, Sigma-Aldrich™). The inserts were transferred to a cellZscope® device placed in a humidified incubator (37° C., 5% CO2) and impedance measurements obtained continuously. Treatment was started upon reaching a plateau in TEER levels.
Isolation of mouse brain microvascular endothelial cells (MBMECs) was conducted as follows: Meninges-free brains were pooled and homogenized followed by digesting the pellet with 0.75% Collagenase II (Worthington™) in buffer A (1:1:1 volume ratio) for 1 hour with shaking at 37° C. For removing myelin, samples were resuspended in 25% BSA and centrifuged at 1500×g for 30 min at 4° C., followed by digesting the pellet with Collagenase/Dispase® (Roche™) and DNase I (Worthington™) in buffer A for 12 min at 37° C. […]

Compound	stroke size (TTC staining) ([1]; WT mice after MCAO, compared to vehicle dH2O control, FIG. 11)	permeability to IgG in the stroke area ([1]; mice after MCAO, compared to control)	neurological behavior after stroke (behavior scoring test) ([1]; mice after stroke, FIG. 19)	Akt activation (pAkt) in the stroke hemisphere (Tie-2 [2]; Western blot, n=7, FIG. 15)	pTie-2 in the stroke hemisphere (Tie-2 [2]; treated mice compared to controls, FIGS. 15 and 16)	Akt activation (pAkt levels) (Tie-2 [3]; FIGS. 13 and 14)	Tie-2 activation (pTie-2 levels) (Tie-2 [3]; FIGS. 13 and 14)	phosphorylation of VE-Cadherin (pVE-Cadherin) (Tie-2 [3]; n=3)	permeability to tracers (fluorescent dextrans 3 kD, 20 kD, 70 kD and Lucifer-Yellow 0.45 kD) (MBMEC monolayers)	transendothelial electrical resistance (TEER) of MBMECs [4]
CCc1nc([C@H](Cc2ccc(NS(=O)(=O)O)cc2)NC(=O)[C@H](Cc2ccccc2)NC(=O)OC)cs1 [Tie-2 activator]	significantly decreased stroke sizes	Decreased permeability to IgG	improvement in neurological behavior	increased Akt activation	increased pTie-2 staining	increased Tie-2 and Akt activation	increased levels of pTie-2	decreased in tendency, but not significant		
rhAng-2: recombinant human angiopoietin 2, a Tie-2 ligand									increased permeability to tracers of all sizes	decrease in TEER; also recorded: decrease in transendothelial electrical resistance
